Reference: article PMC9572521, “Synthesis, Docking Studies and Pharmacological Evaluation of Serotoninergic Ligands Containing a 5-Norbornene-2-Carboxamide Nucleus” (Molecules, 2022)
Read-outs that look alike come from different tables or passages of the source.

Assays:
5-HT2A receptor = 5-HT2A receptor (Rattus norvegicus, UniProt P14842); experiment: 5-HT2A competition binding assay ([3H]ketanserin, frontal cortex homogenates); details: read-out: 5-HT2A Ki (95% CI)
[1] = test system: 5-HT2A receptors (5-HT-induced contractions in the rat ileum); experiment: 5-HT-evoked contractions of isolated rat ileum; details: for Emax, maximal inhibitory effect on 5-HT-induced contractions in the rat ileum: 5-HT 10^−5 M, compounds 10^−8–10^−5 M
human 5-HT2C receptor = molecular target: T1, human 5-HT2C receptor (Homo sapiens, UniProt P28335); experiment: 5-HT2C competition binding assay ([3H]mesulergine, transfected cell membranes); details: [3H]mesulergine, human 5-HT2C membranes
T1 sequence (P28335 33-458): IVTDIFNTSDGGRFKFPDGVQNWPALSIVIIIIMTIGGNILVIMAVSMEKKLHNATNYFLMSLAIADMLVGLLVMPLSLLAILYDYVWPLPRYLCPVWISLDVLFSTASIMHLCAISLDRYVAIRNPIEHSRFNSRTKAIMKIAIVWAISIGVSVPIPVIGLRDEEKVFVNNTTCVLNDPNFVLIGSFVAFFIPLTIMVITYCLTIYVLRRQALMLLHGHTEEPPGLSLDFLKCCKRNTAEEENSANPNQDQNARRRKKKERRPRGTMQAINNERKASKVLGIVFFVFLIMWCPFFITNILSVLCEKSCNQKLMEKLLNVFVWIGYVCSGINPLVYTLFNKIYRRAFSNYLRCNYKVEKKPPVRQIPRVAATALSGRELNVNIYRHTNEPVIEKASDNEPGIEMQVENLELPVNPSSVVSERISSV

D2 receptor = molecular target: T2, D2 receptor (Rattus norvegicus, UniProt P61169); experiment: Functional D2 receptor [35S]GTPγS assay (antagonist mode vs dopamine; basal for agonism); type: biochemical; details: against 40 µM dopamine, rat striatal homogenate;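 further: [35S]GTPγS binding counted by scintillation after 60 min at 30 °C, nonspecific binding defined with 100 µM unlabeled GTPγS, inhibition curves fitted by one-site nonlinear regression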
T2 construct: 15μg/mL of striatal homogenate was incubated in triplicate; from tissue; host or cells: rat striatum homogenate

5-HT1A receptor = molecular target: T3, 5-HT1A receptor (Rattus norvegicus, UniProt P19327); experiment: Functional 5-HT1A receptor [35S]GTPγS assay (agonist mode); type: biochemical; details: [35S]GTPγS;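 further: male Sprague-Dawley rat hippocampal membranes incubated 90 min at 37 °C, bound label counted by scintillation after filtration, non-specific binding defined with 100 µM unlabeled GTPγS, one-site curve fit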
T3 construct: 15 μg/mL of hippocampus homogenate was incubated in triplicate with 0.8 nM; from tissue; host or cells: rat hippocampus homogenate
T3 sequence (P19327 1-422): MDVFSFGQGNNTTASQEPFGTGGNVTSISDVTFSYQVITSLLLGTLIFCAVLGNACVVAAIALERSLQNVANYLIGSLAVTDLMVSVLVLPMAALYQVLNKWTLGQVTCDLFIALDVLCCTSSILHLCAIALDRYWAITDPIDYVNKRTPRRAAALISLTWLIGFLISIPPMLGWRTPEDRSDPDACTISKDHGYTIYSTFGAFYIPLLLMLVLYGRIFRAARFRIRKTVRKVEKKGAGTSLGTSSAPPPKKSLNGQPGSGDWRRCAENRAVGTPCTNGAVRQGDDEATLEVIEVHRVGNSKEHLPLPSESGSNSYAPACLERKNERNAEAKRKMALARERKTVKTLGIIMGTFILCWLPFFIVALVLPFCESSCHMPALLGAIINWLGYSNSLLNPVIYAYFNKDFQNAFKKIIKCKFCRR

mice [2] = experiment: Elevated plus-maze test (EPM); type: in vivo, mouse; details: 5 mg/kg i.p., 60 min before the test
Method: The experiments were carried out, in the Experimental Medicine Center of Medical University of Lublin, on six-week-old naive male Swiss mice, weighing 24–30 g. The mice were housed in cages, five individuals per cage in an environmentally controlled rooms (ambient temperature 22 ± 1 °C; relative humidity 50–60%; 12 h light/dark cycle, lights on at 8:00). Standard laboratory food(LSM-Agropol-Motycz, Lublin, Poland) and filtered water were available ad libitum. All the experimental procedures were carried out, according to the National Institute of Health Guidelines for the Care and Use of Laboratory Animals and to the European Community Council Directive for the Care and Use of Laboratory Animals of 22 September 2010 (2010/63/EU) and approved by the Local Ethics Committee for Animal Experimentation in Lublin. The investigated compounds (Norbo-4, Norbo-8, Norbo-10, Norbo-14, Norbo-18 and Norbo-20) in all tests were administered intraperitoneally (i.p.), dissolved in dimethyl sulfoxide (DMSO, final concentration of 0.1%) and then diluted by aqueous solution of 0.5% methylcellulose (tylose) and injected 60 min before the tests. […] All compounds were given in a volume of 10 mL/kg to mice. The control animals received an equivalent volume of the solvent at the respective time before the tests. All the experiments were conducted in the light phase between 09.00 a.m. and 14.00 p.m. The experiments were performed by an observer unaware of the treatment administered. The EPM studies were carried out on mice according to the method of Lister. The EPM apparatus was made of plexiglass and consisted of two open (30 × 5 cm) and two enclosed (30 × 5 × 15 cm) arms. The arms extended from a central platform of 5 × 5 cm. The apparatus was mounted on a plexiglass base, raising it 38.5 cm above the floor, and illuminated by a red light. The test consisted of placing a mouse in the center of the apparatus (facing an open arm) and allowing it to freely explore. The number of entries into the open arms and the time spent in these arms were scored for a 5 min test period. An entry was defined as placing all four paws within the boundaries of the arm. The following measures were obtained from the test: the total number of arm entries; the percentage of arm entries into the open arms; and the time spent in the open arms expressed as a percentage of the time spent in both the open and closed arms. Anxiolytic activity was indicated by increases in the time spent in open arms and in the number of open arm entries. The total number of entries into either type of arm was used additionally as a measure of overall motor activity.

mice [3] = experiment: Forced swim test (FST, Porsolt's test); type: in vivo, mouse; details: 15 mg/kg i.p., 60 min before the test
Method: The experiments were carried out, in the Experimental Medicine Center of Medical University of Lublin, on six-week-old naive male Swiss mice, weighing 24–30 g. The mice were housed in cages, five individuals per cage in an environmentally controlled rooms (ambient temperature 22 ± 1 °C; relative humidity 50–60%; 12 h light/dark cycle, lights on at 8:00). Standard laboratory food(LSM-Agropol-Motycz, Lublin, Poland) and filtered water were available ad libitum. All the experimental procedures were carried out, according to the National Institute of Health Guidelines for the Care and Use of Laboratory Animals and to the European Community Council Directive for the Care and Use of Laboratory Animals of 22 September 2010 (2010/63/EU) and approved by the Local Ethics Committee for Animal Experimentation in Lublin. The investigated compounds (Norbo-4, Norbo-8, Norbo-10, Norbo-14, Norbo-18 and Norbo-20) in all tests were administered intraperitoneally (i.p.), dissolved in dimethyl sulfoxide (DMSO, final concentration of 0.1%) and then diluted by aqueous solution of 0.5% methylcellulose (tylose) and injected 60 min before the tests. […] All compounds were given in a volume of 10 mL/kg to mice. The control animals received an equivalent volume of the solvent at the respective time before the tests. All the experiments were conducted in the light phase between 09.00 a.m. and 14.00 p.m. The experiments were performed by an observer unaware of the treatment administered. The experiment was carried out according to the method of Porsolt et al.. Mice were individually placed in a glass cylinder (25 cm high; 10 cm in diameter) containing water maintained at 23–25 °C, and were left there for 6 min. The total duration of immobility was recorded during the last 4 min of a 6-min test session. A mouse was regarded as immobile when it remained floating on the water, making only small movements to keep its head above the water.

[4] = read-out: D2 receptor antagonistic activity IC50 (95% CI)
[5] = read-out: D2 receptor antagonistic activity pIC50 (M ± SEM) (converted)
[6] = rat hippocampus homogenate, ± SEM, read-out: 5-HT1A Receptor G-Protein Stimulation pEC50 (converted)
[7] = rat hippocampus homogenate, read-out: 5-HT1A Receptor G-Protein Stimulation EC50 (95% CI)

T2 sequence (P61169 whole entry): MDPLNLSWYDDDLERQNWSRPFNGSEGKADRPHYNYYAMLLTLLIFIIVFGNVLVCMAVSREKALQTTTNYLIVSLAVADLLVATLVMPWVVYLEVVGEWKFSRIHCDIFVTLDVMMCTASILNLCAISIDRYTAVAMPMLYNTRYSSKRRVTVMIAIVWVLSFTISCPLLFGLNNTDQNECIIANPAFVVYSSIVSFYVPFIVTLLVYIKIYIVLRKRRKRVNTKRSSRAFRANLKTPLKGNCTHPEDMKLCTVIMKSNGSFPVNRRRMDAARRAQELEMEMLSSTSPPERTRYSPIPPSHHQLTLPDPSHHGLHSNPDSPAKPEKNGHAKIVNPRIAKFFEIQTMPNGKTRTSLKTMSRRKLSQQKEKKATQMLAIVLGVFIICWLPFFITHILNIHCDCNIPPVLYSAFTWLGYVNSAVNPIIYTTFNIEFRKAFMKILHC
Chain of 5-HT2A receptor (P14842 whole entry): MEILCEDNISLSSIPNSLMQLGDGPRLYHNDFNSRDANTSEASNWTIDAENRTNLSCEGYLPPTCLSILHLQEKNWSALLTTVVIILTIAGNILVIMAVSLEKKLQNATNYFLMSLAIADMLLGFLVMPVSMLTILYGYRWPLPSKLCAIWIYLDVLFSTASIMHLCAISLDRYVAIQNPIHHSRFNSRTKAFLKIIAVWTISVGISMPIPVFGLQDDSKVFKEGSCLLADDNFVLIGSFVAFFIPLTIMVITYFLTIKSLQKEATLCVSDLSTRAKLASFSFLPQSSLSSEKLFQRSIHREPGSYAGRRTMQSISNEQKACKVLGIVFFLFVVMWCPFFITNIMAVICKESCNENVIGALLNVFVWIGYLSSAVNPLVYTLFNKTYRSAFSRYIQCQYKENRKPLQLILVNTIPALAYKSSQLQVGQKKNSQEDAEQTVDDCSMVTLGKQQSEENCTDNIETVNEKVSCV

| Structure (SMILES) | Ki (5-HT2A receptor) [nM] | Emax, maximal inhibitory effect on 5-HT-induced contractions in the rat ileum [1] [%] | Ki (human 5-HT2C receptor; read-out: 5-HT2C Ki (95% CI)) [nM] | IC50 (D2 receptor; [4]) [µM] | IC50 (D2 receptor; [5]) [µM] | 5-HT1A Receptor G-Protein Stimulation Emax (%) ± SEM (5-HT1A receptor; rat hippocampus homogenate) | EC50 (5-HT1A receptor; [6]) [nM] | other results |
| --- | --- | --- | --- | --- | --- | --- | --- | --- |
| COc1ccccc1N1CCN(CCCNC(=O)C2CC3C=CC2C3)CC1 (single isomer, unassigned) [Norbo-5, Exo-N-(3-(4-(2-methoxyphenyl)piperazin-1-yl)propyl)bicyclo[2.2.1]hept-5-ene-2-carboxamide] | 45.7 | 15.42 | 1820 | 33.4 | 33.9 | 140 ± 25.2 ^&& % | 10000 | – |
| O=C(c1ccc(F)cc1)C1CCN(CCn2c(=O)[nH]c3ccccc3c2=O)CC1 [Ketanserin, reference compound] | – | – | – | – | – | – | – | effect on contractions induced by 5-HT ([1]; preliminary experiments, 0.1 µM): depressed the contractions induced by 5-HT |
| O=C(NCCCN1CCN(c2ccccc2F)CC1)C1CC2C=CC1C2 (stereo not drawn) [Norbo-16, endo.-N-(3-(4-(2-fluorophenyl)piperazin-1-yl)propyl)bicyclo[2.2.1]hept-5-ene-2-carboxamide] | 73.3 | 23.47 | 1540 | 41.5 | – | 182 ± 5.5 **^,# % | – | EC50 (5-HT1A receptor; [7]): 939 nM |
| O=C(NCCCN1CCN(c2ccc(F)cc2)CC1)C1CC2C=CC1C2 (stereo not drawn) [Norbo-17, Exo-N-(3-(4-(4-fluorophenyl)piperazin-1-yl)propyl)bicyclo[2.2.1]hept-5-ene-2-carboxamide] | 22.7 | 32.50 | 2360 | 59.5 | 60.3 | 122 ± 2.0 ^&&& % | 631 | Ki (human 5-HT2C receptor; ± SEM, read-out: 5-HT2C pKi (converted)): 2400 nM; EC50 (5-HT1A receptor; [7]): 553 nM |
| O=C(NCCCN1CCN(c2cccc(C(F)(F)F)c2)CC1)C1CC2C=CC1C2 (stereo not drawn) [Norbo-19, Exo-N-(3-(4-(3-(trifluoromethyl)phenyl)piperazin-1-yl)propyl)bicyclo[2.2.1]hept-5-ene-2-carboxamide] | 42.6 | 39.00 | 167 | 144 | – | – | 316 | Emax (5-HT1A receptor; rat hippocampus homogenate, read-out: 5-HT1A Receptor G-Protein Stimulation Emax (%) ± SEM): 162 ± 2.1% |
| O=C(NCCCN1CCN(c2cccc(C(F)(F)F)c2)CC1)C1CC2C=CC1C2 (stereo not drawn) [Norbo-20, endo-N-(3-(4-(3-(trifluoromethyl)phenyl)piperazin-1-yl)propyl)bicyclo[2.2.1]hept-5-ene-2-carboxamide] | 22.9 | 21.79 | 1950 | 52.7 | 56.2 | 167 ± 1.4 % | 200 | – |
| O=C(NCCCN1CCN(C(=O)c2ccco2)CC1)C1CC2C=CC1C2 (stereo not drawn) [Norbo-28, endo-N-(3-(4-(furan-2-carbonyl)piperazin-1-yl)propyl)bicyclo[2.2.1]hept-5-ene-2-carboxamide] | 1070 | – | 3930 | – | – | – | – | D2 receptor antagonistic activity IC50 (95% CI, µM) (D2 receptor): no activity; D2 receptor antagonistic activity pIC50 (M ± SEM) (D2 receptor): no activity; 5-HT1A Receptor G-Protein Stimulation pEC50 (5-HT1A receptor; rat hippocampus homogenate, ± SEM): no activity; agonist activity at the 5-HT1A receptor (5-HT1A receptor; result in words): no agonist activity |
| O=C1CC2(CCCC2)CC(=O)N1CCCCN1CCN(c2ncccn2)CC1 [buspirone, reference compound] | – | – | – | – | – | – | – | percentage of the open arm entries (EPM) (mice [2]): significant increase; percentage of time spent in open arms (EPM) (mice [2]): significant increase; percentage of the open arm entries (EPM) (mice [2]; listed as Buspirone): increased the percentage of entries into the open arms; percentage of time spent in open arms (EPM) (mice [2]; listed as Buspirone): prolonged the time |
| CN[C@H]1CC[C@@H](c2ccc(Cl)c(Cl)c2)c2ccccc21 [sertraline, reference compound] | – | – | – | – | – | – | – | immobility time in FST (mice [3]): significant reduction in the immobility time; immobility time in FST (mice [3]; listed as Sertraline): significantly shortened the immobility time |
| NC1=N[C@H](O)[C@H]2[C@H]3O[C@]4(O)O[C@@H]([C@@H](O)[C@@]2(N1)[C@@H]4O)[C@]3(O)CO [tetrodotoxin, reference compound] | – | – | – | – | – | – | – | effect on contractions induced by 5-HT [1]: did not affect the contractions by 5-HT |
